{"source": "patent US9796711B2", "about": "“Substituted pyrazolo[3,4-b]pyridin-6-carboxylic acids and method of use” (AbbVie S.àr.l., priority 2015, dated 2017)", "molecular_target": "T1, CFTR ΔF508 (Homo sapiens, UniProt P13569, DEL508-508)", "T1 construct": "bronchial epithelial cells isolated from CF patients homozygous for the CFTR ΔF508 mutation; McGill University; Asterand; University of North Carolina hAEC-CF; host or cells: primary human bronchial epithelial cells from CF patients homozygous for ΔF508", "T1 sequence (P13569 with tags, fused parts or gaps DEL508-508)": "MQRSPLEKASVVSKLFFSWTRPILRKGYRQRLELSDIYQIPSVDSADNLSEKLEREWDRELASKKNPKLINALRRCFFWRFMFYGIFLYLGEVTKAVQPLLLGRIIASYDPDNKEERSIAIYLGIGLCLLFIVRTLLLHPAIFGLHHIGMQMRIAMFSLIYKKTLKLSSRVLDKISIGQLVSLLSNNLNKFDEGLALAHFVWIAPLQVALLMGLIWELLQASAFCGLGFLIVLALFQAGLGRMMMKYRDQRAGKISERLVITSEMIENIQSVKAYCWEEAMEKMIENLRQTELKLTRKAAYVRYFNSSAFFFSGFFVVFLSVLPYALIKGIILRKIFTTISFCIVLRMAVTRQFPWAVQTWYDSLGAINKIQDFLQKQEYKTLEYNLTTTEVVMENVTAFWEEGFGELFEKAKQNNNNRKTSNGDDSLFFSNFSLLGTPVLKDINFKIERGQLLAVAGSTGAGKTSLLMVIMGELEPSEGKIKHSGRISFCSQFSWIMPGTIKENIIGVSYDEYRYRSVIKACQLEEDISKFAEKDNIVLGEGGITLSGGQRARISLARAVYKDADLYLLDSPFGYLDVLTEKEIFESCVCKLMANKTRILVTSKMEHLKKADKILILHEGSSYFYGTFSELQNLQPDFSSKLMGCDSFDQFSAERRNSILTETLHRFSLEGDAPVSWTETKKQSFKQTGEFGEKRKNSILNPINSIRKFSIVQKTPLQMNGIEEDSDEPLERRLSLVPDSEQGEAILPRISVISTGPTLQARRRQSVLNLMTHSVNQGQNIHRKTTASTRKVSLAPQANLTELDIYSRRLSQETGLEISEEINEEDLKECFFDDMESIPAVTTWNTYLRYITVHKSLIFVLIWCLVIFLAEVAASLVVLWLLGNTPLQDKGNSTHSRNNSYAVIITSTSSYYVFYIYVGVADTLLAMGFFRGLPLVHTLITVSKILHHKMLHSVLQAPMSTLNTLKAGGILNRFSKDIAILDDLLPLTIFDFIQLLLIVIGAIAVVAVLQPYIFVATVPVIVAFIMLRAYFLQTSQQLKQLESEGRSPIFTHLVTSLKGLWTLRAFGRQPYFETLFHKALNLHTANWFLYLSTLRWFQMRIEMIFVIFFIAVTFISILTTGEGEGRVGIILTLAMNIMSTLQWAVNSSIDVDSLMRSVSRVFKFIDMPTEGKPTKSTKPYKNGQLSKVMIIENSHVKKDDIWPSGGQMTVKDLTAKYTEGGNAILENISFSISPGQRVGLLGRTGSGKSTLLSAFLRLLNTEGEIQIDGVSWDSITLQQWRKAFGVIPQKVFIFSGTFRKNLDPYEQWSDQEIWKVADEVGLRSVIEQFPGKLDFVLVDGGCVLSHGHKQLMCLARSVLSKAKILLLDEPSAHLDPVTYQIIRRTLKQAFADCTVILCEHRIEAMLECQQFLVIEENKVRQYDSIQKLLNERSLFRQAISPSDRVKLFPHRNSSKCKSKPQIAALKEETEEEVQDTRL", "experiment": "Chronic TECC assay on primary bronchial epithelial cells (corrector, co-corrector and potentiator)", "format": "cell-based", "conditions": "chronic TECC, with co-corrector and potentiator, 24 hours", "procedure": "Primary Bronchial Epithelial Cells Protocol\nThe TECC (Tranepithelial Clamp Circuit, EP-design) assay measures the functionality of the cystic fibrosis Transmembrane Conductance regulator (CFTR) by measuring the short circuit current (Isc) generated over the basolateral and apical membrane of lung epithelial cells. In TECC the transepithelial potential PD and transepithelial resistance (Rt)) are measured in an open circuit and transformed to Ieq using Ohm's law. 24 Wells can be measured simultaneously allowing a higher throughput compared to Ussing chambers.\nFor this purpose, bronchial epithelial cells isolated from CF patients homozygous for the CFTR ΔF508 mutation (hAEC-CF, Epithelix, Geneva, Switzerland; McGill University, Montreal, Qc; Asterand, Detroit, Mich.; University of North Carolina, Chapel Hill, N.C.) are plated on type IV collagen-coated Transwell® supports (Costar). Human airway epithelia are generated by provision of an air-liquid interface for 21 days to form well-differentiated polarized cultures that resemble in vivo pseudo-stratified ciliated epithelium (Fulcher, M. L., Gabriel, S., Burns, K. A., Yankaskas, J. R., Randell, S. H., 2005. Well-differentiated human airway epithelial cell cultures. Methods Mol. Med. 107, 183-206). The differentiated cells are treated with test corrector compound(s) (corrector alone or in combination with co-corrector, 4-[(2R,4R)-4-({[1-(2,2-difluoro-1,3-benzodioxol-5-yl)cyclopropyl]carbonyl}amino)-7-methoxy-3,4-dihydro-2H-chromen-2-yl]benzoic acid (G924806/A-1618261) (“acute”) or test corrector compounds, co-corrector and potentiator, N-(3-carbamoyl-5,5,7,7-tetramethyl-4,7-dihydro-5H-thieno[2,3-c]pyran-2-yl)-1H-pyrazole-5-carboxamide GLPG1837, (“chronic”) for 24 hours basolaterally to allow sufficient expression of properly folded CFTR protein on the membrane. All compound plates contained negative controls (DMSO) and positive controls (0.15 μM, 4-[(2R,4R)-4-({[1-(2,2-difluoro-1,3-benzodioxol-5-yl)cyclopropyl]carbonyl}amino)-7-(difluoromethoxy)-3,4-dihydro-2H-chromen-2-yl]benzoic acid).\nFor electrophysiological recording of the “chronic” experiments, the human airway epithelia are mounted in the TECC heating plate for electrophysiological measurement and kept at 37° C. The epithelia are bathed in a NaCl-Ringer solution (120 mM NaCl, 25 mM NaHCO3, 1.2 mM CaCl2, 1.2 mM MgCl2, 0.8 mM KH2PO4, 0.8 mM K2HPO4, pH 7.4, 5 mM glucose) on both the basolateral and apical sides. Test compounds (corrector, co-corrector, 4-[(2R,4R)-4-({[1-(2,2-difluoro-1,3-benzodioxol-5-yl)cyclopropyl]carbonyl}amino)-7-(difluoromethoxy)-3,4-dihydro-2H-chromen-2-yl]benzoic acid, and potentiator, N-(3-carbamoyl-5,5,7,7-tetramethyl-4,7-dihydro-5H-thieno[2,3-c]pyran-2-yl)-1H-pyrazole-5-carboxamide), are re-added to the recording solution prior to measurement. Apical amiloride is used to inhibit the endogenous ENaC currents while forskolin is applied on both apical and basolateral side to stimulate CFTR. Measurements are done during a 20 minute timeframe with recordings every 2 minutes. The increase in Ieq is used as a measure for the increased CFTR activity, EC50 values can be generated by measuring impact of different concentrations of compound on Ieq on primary cells, for this purpose each transwell is treated with a different compound concentration. Inhibitor-172, an inhibitor specific for CFTR, is used to test the specificity of the tested compounds. Raw data were normalized to percentage activity values using the equation: 100×(Sample−Negative control)/(Positive control−Negative Control).", "key": {"[1]": {"conditions": "AUC = full area under the curve upon forskolin stimulation"}, "[2]": {"conditions": "AUC = full area under the curve upon forskolin stimulation, read-out: EC50 (nM) (AUC)"}, "[3]": {"conditions": "Ieq = calculations based on the maximum current"}, "[4]": {"conditions": "Ieq = calculations based on the maximum current, read-out: EC50 (nM) (Ieq)"}}, "note": "Where two headings read alike, the source gives them in different places."}
{"smiles": "CC(F)(F)c1cccc(-n2nc(C3CCC3)c3c(N4CCC(N5CCOCC5)CC4)cc(C(=O)O)nc32)c1", "note": "[compound 915]", "values": [{"measurement": "% Activity at 3 μM (AUC)", "setting": "[1]", "result": 423.3333, "unit": "%"}]}
{"smiles": "CC1CCN(CCC2CCN(c3cc(C(=O)O)nc4c3c(C3CCC3)nn4-c3ccccc3)CC2)CC1", "note": "[compound 687, 3-cyclobutyl-4-{4-[2-(4-methylpiperidin-1-yl)ethyl]piperidin-1-yl}-1-phenyl-1H-pyrazolo[3,4-b]pyridine-6-carboxylic acid]", "values": [{"measurement": "% Activity at 1 μM (AUC**)", "setting": "[1]", "result": 263.3333, "unit": "%"}, {"measurement": "EC50", "setting": "[2]", "result": 53.5, "unit": "nM"}]}
{"smiles": "CC(C)c1nn(-c2ccc(F)cc2)c2nc(C(=O)O)cc(N3CCC(N4CCN(C5CC5)CC4)CC3)c12", "note": "[compound 754, 4-[4-(4-cyclopropylpiperazin-1-yl)piperidin-1-yl]-1-(4-fluorophenyl)-3-(propan-2-yl)-1H-pyrazolo[3,4-b]pyridine-6-carboxylic acid]", "values": [{"measurement": "% Activity at 1 μM (AUC**)", "setting": "[1]", "result": 190, "unit": "%"}]}
{"smiles": "O=C(O)c1cc(N2CCC(N3CCC(O)CC3)CC2)c2c(C3CCC3)nn(-c3ccc(F)cc3)c2n1", "note": "[compound 898, 3-cyclobutyl-1-(4-fluorophenyl)-4-(4-hydroxy[1,4′-bipiperidin]-1′-yl)-1H-pyrazolo[3,4-b]pyridine-6-carboxylic acid]", "values": [{"measurement": "% Activity at 3 μM (AUC)", "setting": "[1]", "result": 150.7853, "unit": "%"}, {"measurement": "EC50", "setting": "[2]", "result": 2640, "unit": "nM"}]}
{"smiles": "CC(C)c1nn(-c2cc(F)cc(F)c2)c2nc(C(=O)O)cc(-c3ccc(N4CCOCC4)cc3)c12", "note": "[compound 268, 1-(3,5-difluorophenyl)-4-[4-(morpholin-4-yl)phenyl]-3-(propan-2-yl)-1H-pyrazolo[3,4-b]pyridine-6-carboxylic acid]", "values": [{"measurement": "% Activity at 1 μM (Ieq*)", "setting": "[3]", "result": 267, "unit": "%"}, {"measurement": "EC50", "setting": "[4]", "result": 25, "unit": "nM"}]}
{"smiles": "O=C(O)c1cc(N2CCC(N3CCN(C4CC4)CC3)CC2)c2c(C3CCC3)nn(-c3ccccc3)c2n1", "note": "[compound 738, 3-cyclobutyl-4-[4-(4-cyclopropylpiperazin-1-yl)piperidin-1-yl]-1-phenyl-1H-pyrazolo[3,4-b]pyridine-6-carboxylic acid]", "values": [{"measurement": "% Activity at 1 μM (AUC**)", "setting": "[1]", "result": 230, "unit": "%"}, {"measurement": "EC50", "setting": "[2]", "result": 23, "unit": "nM"}]}
{"smiles": "CC(C)Oc1nn(C2CCCCC2)c2nc(C(=O)O)cc(-c3ccc(CN4CC(N(C)C)C4)cc3)c12", "note": "[compound 927, 1-cyclohexyl-4-(4-{[3-(dimethylamino)azetidin-1-yl]methyl}phenyl)-3-[(propan-2-yl)oxy]-1H-pyrazolo[3,4-b]pyridine-6-carboxylic acid]", "values": [{"measurement": "EC50", "setting": "[2]", "result": 1940, "unit": "nM"}]}
{"smiles": "O=C(O)c1cc(N2CCC(N3CCOCC3)CC2)c2c(C3CCC3)nn(-c3ccc(F)cc3)c2n1", "note": "[compound 679, 3-cyclobutyl-1-(4-fluorophenyl)-4-[4-(morpholin-4-yl)piperidin-1-yl]-1H-pyrazolo[3,4-b]pyridine-6-carboxylic acid]", "values": [{"measurement": "% Activity at 1 μM (AUC**)", "setting": "[1]", "result": 373.3333, "unit": "%"}, {"measurement": "EC50", "setting": "[2]", "result": 28, "unit": "nM"}]}
{"smiles": "CN(C)C[C@@H](F)C1CCN(c2cc(C(=O)O)nc3c2c(C2CCC2)nn3-c2ccccc2)CC1", "note": "[compound 456, 3-cyclobutyl-4-{4-[(1S)-2-(dimethylamino)-1-fluoroethyl]piperidin-1-yl}-1-phenyl-1H-pyrazolo[3,4-b]pyridine-6-carboxylic acid]", "values": [{"measurement": "EC50", "setting": "[2]", "result": 120, "unit": "nM"}]}
{"smiles": "COCC1CCN(c2cc(C(=O)O)nc3c2c(C(C)C)nn3-c2cccc(C)c2)CC1", "note": "[compound 227, 4-[4-(methoxymethyl)piperidin-1-yl]-1-(3-methylphenyl)-3-(propan-2-yl)-1H-pyrazolo[3,4-b]pyridine-6-carboxylic acid]", "values": [{"measurement": "% Activity at 1 μM (Ieq*)", "setting": "[3]", "result": 300, "unit": "%"}, {"measurement": "EC50", "setting": "[4]", "result": 30, "unit": "nM"}]}
{"smiles": "CC(C)Oc1cccc(-n2nc(C3CCC3)c3c(N4CCC(N5CCOCC5)CC4)cc(C(=O)O)nc32)n1", "note": "[compound 924, 3-cyclobutyl-4-[4-(morpholin-4-yl)piperidin-1-yl]-1-{6-[(propan-2-yl)oxy]pyridin-2-yl}-1H-pyrazolo[3,4-b]pyridine-6-carboxylic acid]", "values": [{"measurement": "% Activity at 3 μM (AUC)", "setting": "[1]", "result": 235.9027, "unit": "%"}, {"measurement": "EC50", "setting": "[2]", "result": 10.6, "unit": "nM"}]}
{"smiles": "O=C(O)c1cc(N2CCC(CCN3CCOCC3)CC2)c2c(C3CCC3)nn(-c3ccc(F)cc3)c2n1", "note": "[compound 810, 3-cyclobutyl-1-(4-fluorophenyl)-4-{4-[2-(morpholin-4-yl)ethyl]piperidin-1-yl}-1H-pyrazolo[3,4-b]pyridine-6-carboxylic acid]", "values": [{"measurement": "% Activity at 1 μM (AUC**)", "setting": "[1]", "result": 191.4768, "unit": "%"}]}
{"smiles": "CC(C)c1nn(-c2ccc(F)cc2)c2nc(C(=O)O)cc(N3CCC(CN4CCCCC4)CC3)c12", "note": "[compound 790, 1-(4-fluorophenyl)-4-{4-[(piperidin-1-yl)methyl]piperidin-1-yl}-3-(propan-2-yl)-1H-pyrazolo[3,4-b]pyridine-6-carboxylic acid]", "values": [{"measurement": "% Activity at 1 μM (AUC**)", "setting": "[1]", "result": 220, "unit": "%"}, {"measurement": "EC50", "setting": "[2]", "result": 120, "unit": "nM"}]}
{"smiles": "CO[C@H]1CCC[C@@H](n2nc(C(C)C)c3c(-c4ccc(N5CCOCC5)cc4)cc(C(=O)O)nc32)C1", "note": "[compound 205, 1-[(1R,3S)-3-methoxycyclohexyl]-4-[4-(morpholin-4-yl)phenyl]-3-(propan-2-yl)-1H-pyrazolo[3,4-b]pyridine-6-carboxylic acid]", "values": [{"measurement": "% Activity at 1 μM (Ieq*)", "setting": "[3]", "result": 140, "unit": "%"}, {"measurement": "EC50", "setting": "[4]", "result": "> 1000", "unit": "nM"}]}
{"smiles": "COC1CCN(C2CCN(c3cc(C(=O)O)nc4c3c(C3CCC3)nn4-c3ccc(F)cc3)CC2)CC1", "note": "[compound 892, 3-cyclobutyl-1-(4-fluorophenyl)-4-(4-methoxy[1,4′-bipiperidin]-1′-yl)-1H-pyrazolo[3,4-b]pyridine-6-carboxylic acid]", "values": [{"measurement": "% Activity at 1 μM (AUC**)", "setting": "[1]", "result": 188.3291, "unit": "%"}, {"measurement": "EC50", "setting": "[2]", "result": 900, "unit": "nM"}]}
{"smiles": "CC(C1CCN(c2cc(C(=O)O)nc3c2c(C2CCC2)nn3-c2ccccc2)CC1)N1CCOCC1", "note": "(stereo not drawn) [compound 683, 3-cyclobutyl-4-{4-[1-(morpholin-4-yl)ethyl]piperidin-1-yl}-1-phenyl-1H-pyrazolo[3,4-b]pyridine-6-carboxylic acid]", "values": [{"measurement": "% Activity at 1 μM (AUC**)", "setting": "[1]", "result": 196.675, "unit": "%"}]}
{"smiles": "CCOC(=O)N1CCN(c2cc(C(=O)O)nc3c2c(C2CCC2)nn3-c2ccccc2)CC1", "note": "[compound 539, 3-cyclobutyl-4-[4-(ethoxycarbonyl)piperazin-1-yl]-1-phenyl-1H-pyrazolo[3,4-b]pyridine-6-carboxylic acid]", "values": [{"measurement": "% Activity at 1 μM (AUC**)", "setting": "[1]", "result": 557, "unit": "%"}]}
{"smiles": "O=C(O)c1cc(N2CCC(N3CCC(F)CC3)CC2)c2c(C3CCC3)nn(-c3ccc(F)cc3)c2n1", "note": "[compound 849, 3-cyclobutyl-4-(4-fluoro[1,4′-bipiperidin]-1′-yl)-1-(4-fluorophenyl)-1H-pyrazolo[3,4-b]pyridine-6-carboxylic acid]", "values": [{"measurement": "% Activity at 1 μM (AUC**)", "setting": "[1]", "result": 256.6667, "unit": "%"}, {"measurement": "EC50", "setting": "[2]", "result": 15.6, "unit": "nM"}]}
{"smiles": "CO[C@@H]1CCN(CC2CCN(c3cc(C(=O)O)nc4c3c(C3CCC3)nn4-c3ccccc3)CC2)C1", "note": "[compound 803, 3-cyclobutyl-4-(4-{[(3R)-3-methoxypyrrolidin-1-yl]methyl}piperidin-1-yl)-1-phenyl-1H-pyrazolo[3,4-b]pyridine-6-carboxylic acid]", "values": [{"measurement": "% Activity at 1 μM (AUC**)", "setting": "[1]", "result": 161.4501, "unit": "%"}]}
{"smiles": "CC(C)OC(=O)N1CC[C@@H]2CN(c3cc(C(=O)O)nc4c3c(C3CCC3)nn4-c3ccccc3)CC[C@@H]21", "note": "(racemic) [compound 610, rac-3-cyclobutyl-1-phenyl-4-[(3aR,7aS)-1-{[(propan-2-yl)oxy]carbonyl}octahydro-5H-pyrrolo[3,2-c]pyridin-5-yl]-1H-pyrazolo[3,4-b]pyridine-6-carboxylic acid]", "values": [{"measurement": "% Activity at 1 μM (AUC**)", "setting": "[1]", "result": 471, "unit": "%"}]}
{"smiles": "Cc1cccc(-n2nc(C(C)C)c3c(N4CCC(C#N)CC4)cc(C(=O)O)nc32)c1", "note": "[compound 191, 4-(4-cyanopiperidin-1-yl)-1-(3-methylphenyl)-3-(propan-2-yl)-1H-pyrazolo[3,4-b]pyridine-6-carboxylic acid]", "values": [{"measurement": "% Activity at 1 μM (Ieq*)", "setting": "[3]", "result": 220, "unit": "%"}, {"measurement": "EC50", "setting": "[4]", "result": 50, "unit": "nM"}]}
